Consider 1 compound from PMC12787479, “Steam Explosion as a Green Pretreatment Strategy to Enhance Total Phenolics Release and Biological Activities in Potentilla discolor Bunge Stems” (Molecules, 2025).

Assay type in all cases: biochemical
Test [1] is described as follows: DPPH free radical scavenging assay. The following applies: extract obtained under optimized extraction conditions; 25 °C, 30 min, 517 nm. The protocol:
DPPH ethanol solution (0.12 μmol/mL, 0.1 mL) was mixed with 0.1 mL different concentrations of PDB stem solutions (10, 25, 50, 75, and 100 μg/mL). Incubation was carried out in a dark environment at 25 °C for 30 min. […] The absorbance values were measured at 517 nm using an enzyme meter. All experiments were performed in triplicate, and results are expressed as mean ± standard deviation (SD). The calculation formula was as follows.(3) Radical scavenging rate %=[…]×100% where Ac was the absorbance of blank group; As was the absorbance of PDB stem group, respectively. […] All data were represented as mean ± standard deviation (SD) and the significant statistical differences was determined by a one-way ANOVA test using SPSS version 22.0. Different lowercase letters were regarded as significant differences (p < 0.05).
For orientation: DPPH is a stable violet radical that fades when it is reduced.

Test [2] in a line: FRAP reduction assay (ferric reducing antioxidant power). The following applies: absorbance at 700 nm at a concentration of 600 μg/mL. As for the experimental part: Extraction solutions of PDB stems at 0.4, 0.6, 0.8, 1.0, or 1.2 mg/mL (0.1 mL each) were mixed with an equal volume (0.1 mL) of 30 μmol/mL K3[Fe(CN)6] solution (1:1, v/v) and incubated at 50 °C for 20 min. Then, 0.2 mL of 10% (w/v) trichloroacetic acid (TCA) solution was added, and the resulting mixture was defined as solution A. Finally, 0.1 mL of solution A was mixed with 0.1 mL of 3.4 μmol/mL FeCl3 solution, and the absorbance of the mixture was measured at 700 nm. […] All experiments were performed in triplicate, and results are expressed as mean ± SD.

The nature of test [3]: ABTS free radical scavenging assay. The following applies: extract obtained under optimized extraction conditions; 30 min dark, 734 nm. The protocol: The solution was then diluted fivefold before use. […] For standard curve construction, ascorbic acid solutions at concentrations of 2, 4, 8, 15, 25, and 50 μg/mL were treated in the same manner. All experiments were performed in triplicate, and results were expressed as mean ± SD. The absorbance values were measured at 734 nm, and the scavenging rate was calculated using Equation (1). […] All data were represented as mean ± standard deviation (SD) and the significant statistical differences was determined by a one-way ANOVA test using SPSS version 22.0. Different lowercase letters were regarded as significant differences (p < 0.05).

Marks after values point to notes of the source that are not given here.

`O=C1O[C@H]([C@@H](O)CO)C(O)=C1O` [Ascorbic acid]: the “DPPH·IC50” value in test [1] is 3.47 ± 0.02 ^a μg/mL. The “FRAP (A700, 600 μg/mL)” value in test [2] is listed as 3.17 ± 0.05 ^a; in test [2] (listed as ascorbic acid) it was 3.17 ± 0.05. For the same compound, the “ABTS·IC50” value in test [3] is recorded as 20.71 ± 0.42 ^a μg/mL.
